Test [1] has as its target T1, FLT-3 (Homo sapiens, UniProt P36888).
T1 construct: 0.02% BSA and 3 nM FLT-3
T1 sequence (P36888 27-993): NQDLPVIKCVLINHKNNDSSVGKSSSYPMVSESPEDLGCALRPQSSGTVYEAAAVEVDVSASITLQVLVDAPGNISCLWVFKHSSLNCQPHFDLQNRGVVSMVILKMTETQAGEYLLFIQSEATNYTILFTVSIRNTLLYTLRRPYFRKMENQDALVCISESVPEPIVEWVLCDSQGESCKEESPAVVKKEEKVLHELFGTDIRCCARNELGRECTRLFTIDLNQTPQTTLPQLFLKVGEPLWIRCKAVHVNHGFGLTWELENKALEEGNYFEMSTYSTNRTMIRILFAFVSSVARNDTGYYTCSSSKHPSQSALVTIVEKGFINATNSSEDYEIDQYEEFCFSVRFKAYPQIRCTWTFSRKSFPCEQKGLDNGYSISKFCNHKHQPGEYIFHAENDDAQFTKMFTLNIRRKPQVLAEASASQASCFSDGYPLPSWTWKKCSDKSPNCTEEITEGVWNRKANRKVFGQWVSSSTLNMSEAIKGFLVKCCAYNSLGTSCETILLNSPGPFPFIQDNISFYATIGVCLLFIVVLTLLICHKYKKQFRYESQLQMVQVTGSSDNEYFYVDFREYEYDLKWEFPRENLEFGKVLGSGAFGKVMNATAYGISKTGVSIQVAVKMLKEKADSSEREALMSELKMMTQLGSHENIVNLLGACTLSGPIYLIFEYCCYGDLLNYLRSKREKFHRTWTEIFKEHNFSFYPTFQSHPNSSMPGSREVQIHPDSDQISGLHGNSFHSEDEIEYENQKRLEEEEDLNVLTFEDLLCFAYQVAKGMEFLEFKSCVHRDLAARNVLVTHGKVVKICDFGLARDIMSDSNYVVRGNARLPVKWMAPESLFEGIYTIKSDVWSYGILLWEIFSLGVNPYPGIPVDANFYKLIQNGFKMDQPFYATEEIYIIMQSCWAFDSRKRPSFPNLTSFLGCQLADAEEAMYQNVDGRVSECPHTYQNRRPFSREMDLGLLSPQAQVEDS
The test can be described thus: Inhibition of FLT-3, radiometric filter-binding assay. Type of test: biochemical. The note with it: 90 μM ATP, pE4Y substrate; read-out: Ki values (FLT-3). The procedure:
Compounds were screened for their ability to inhibit FLT-3 activity using a radiometric filter-binding assay. This assay monitors the ^33P incorporation into a substrate poly(Glu, Tyr) 4:1 (pE4Y). Reactions were carried out in a solution containing 100 mM HEPES (pH 7.5), 10 mM MgCl2, 25 mM NaCl, 1 mM DTT, 0.01% BSA and 2.5% DMSO. Final substrate concentrations in the assay were 90 μM ATP and 0.5 mg/mL pE4Y (both from Sigma Chemicals, St Louis, Mo.). The final concentration of compounds is generally between 0.01 and 5 μM. Typically, a 12-point titration was conducted by preparing serial dilutions from 10 mM DMSO stock of test compound. Reactions were carried out at room temperature.
Two assay solutions were prepared. Solution 1 contains 100 mM HEPES (pH 7.5), 10 mM MgCl2, 25 mM NaCl, 1 mg/ml pE4Y and 180 μM ATP (containing 0.3 μCi of [γ-^33P]ATP for each reaction). Solution 2 contains 100 mM HEPES (pH 7.5), 10 mM MgCl2, 25 mM NaCl, 2 mM DTT, 0.02% BSA and 3 nM FLT-3. The assay was run on a 96 well plate by mixing 50 μL each of Solution1 and 2.5 mL of the test compounds. The reaction was initiated with Solution2. After incubation for 20 minutes at room temperature, the reaction was stopped with 50 μL of 20% TCA containing 0.4 mM of ATP. All of the reaction volume was then transferred to a filter plate and washed with 5% TCA by a Harvester9600 from TOMTEC (Hamden, Conn.). The amount of ^33P incorporation into pE4y was analyzed by a Packard TopCount Microplate Scintillation Counter (Meriden, Conn.). The data was fitted using Prism software to get an IC50 or Ki.

Test [2] has as its target T2, human Src kinase (Homo sapiens, UniProt P12931).
T2 construct: 25 nM of recombinant human Src kinase
The test can be described thus: Src inhibition assay B: spectrophotometric (uv-vis) coupled enzyme assay. The note with it: 100 μM ATP. It is filed as biochemical. On the procedure:
The compounds are evaluated as inhibitors of human Src kinase using either a radioactivity-based assay or spectrophotometric assay.
Src Inhibition Assay B: Spectrophotometric Assay
The ADP produced from ATP by the human recombinant Src kinase-catalyzed phosphorylation of poly Glu-Tyr substrate is quantified using a coupled enzyme assay [Fox et al. Protein Sci. 1998, 7, 2249]. In this assay one molecule of NADH is oxidised to NAD for every molecule of ADP produced in the kinase reaction. The disappearance of NADH is conveniently followed at 340 nm.
The following are the final concentrations of the assay components: 0.025 M HEPES (pH 7.6), 10 mM MgCl2, 2 mM DTT, 0.25 mg/ml poly Glu-Tyr, and 25 nM of recombinant human Src kinase. Final concentrations of the components of the coupled enzyme system are 2.5 mM phosphoenolpyruvate, 200 μM NADH, 30 μg/ml pyruvate kinase and 10 μg/ml lactate dehydrogenase.
In a typical assay, all the reaction components with the exception of ATP are pre-mixed and aliquoted into assay plate wells. Inhibitors dissolved in DMSO are added to the wells to give a final DMSO concentration of 2.5%. The assay plate is incubated at 30° C. for 10 min before initiating the reaction with 100 μM ATP. The absorbance change at 340 nm with time, the rate of the reaction, is monitored on a molecular devices plate reader. The data of rate as a function of the inhibitor concentration is fitted to competitive inhibition kinetics model to get the Ki for the compound.

Molecules are shown by their SMILES. Values joined by “and” are separate entries in the source; they are usually repeats but may differ in a detail not shown here. Equal entries are not always repeated.

A word on the Ki: it is a measure of affinity in units of concentration, obtained from inhibition or displacement.

T2 sequence (P12931 whole entry): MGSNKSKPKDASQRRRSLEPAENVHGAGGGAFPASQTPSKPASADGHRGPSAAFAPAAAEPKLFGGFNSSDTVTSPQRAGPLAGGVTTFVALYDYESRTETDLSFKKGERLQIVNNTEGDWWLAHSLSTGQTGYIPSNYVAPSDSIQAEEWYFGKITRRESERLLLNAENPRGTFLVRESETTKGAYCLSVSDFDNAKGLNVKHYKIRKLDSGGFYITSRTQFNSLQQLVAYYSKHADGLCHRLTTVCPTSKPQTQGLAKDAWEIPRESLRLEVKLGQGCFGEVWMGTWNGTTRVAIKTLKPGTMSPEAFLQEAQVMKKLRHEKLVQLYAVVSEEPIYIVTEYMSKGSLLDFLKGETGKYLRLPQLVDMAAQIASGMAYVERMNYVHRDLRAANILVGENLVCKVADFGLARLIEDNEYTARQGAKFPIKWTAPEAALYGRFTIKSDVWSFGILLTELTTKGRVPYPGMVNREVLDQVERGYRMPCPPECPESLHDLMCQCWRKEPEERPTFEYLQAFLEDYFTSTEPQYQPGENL

Consider `CC(=O)N1[C@H](C)CN(c2cc(-n3cnc(Nc4ccc(NC(=O)N(C)C)cc4)n3)ccn2)C[C@@H]1C` [Compound I-77, 3-(4-{1-[2-(4-Acetyl-3,5-dimethyl-piperazin-1-yl)-pyridin-4-yl]-1H-[1,2,4]triazol-3-ylamino}-phenyl)-1,1-dimethyl-urea], for which the inhibition constant (Ki) in test [1] is less than 0.06 µM; in test [2], 0.5 to 1 µM.

Turning to `COC(=O)Nc1ccc(Nc2ncn(-c3ccnc(N4C[C@@H](C)N(C(C)=O)[C@@H](C)C4)c3)n2)cc1` [Compound I-78], the results for the Ki in test [1] and in test [2] were less than 0.06 µM and less than 0.5 µM, respectively.

Consider `CC(=O)N1[C@H](C)CN(c2cc(-n3cnc(Nc4ccc(NC(=O)C(F)(F)F)cc4)n3)ccn2)C[C@@H]1C` [Compound I-79], for which the Ki in test [1] is less than 0.06 µM; in test [2] it was less than 0.5 µM.

As for `CC(=O)N1[C@H](C)CN(c2cc(-n3cnc(Nc4ccc(NC(=O)c5cccs5)cc4)n3)ccn2)C[C@@H]1C` [Compound I-80], the Ki in test [1] is less than 0.06 µM; in test [2], 0.5 to 1 µM.

Regarding `CC(=O)N1[C@H](C)CN(c2cc(-n3cnc(Nc4ccc(NC(=O)c5ccco5)cc4)n3)ccn2)C[C@@H]1C` [Compound I-81, Furan-2-carboxylic acid (4-{1-[2-(4-acetyl-3,5-dimethyl-piperazin-1-yl)-pyridin-4-yl]-1H-[1,2,4]triazol-3-ylamino}-phenyl)-amide], the Ki in test [1] was less than 0.06 µM; in test [2], less than 0.5 µM.

As to `CC(=O)N1[C@H](C)CN(c2cc(-n3cnc(Nc4ccc(N)cc4)n3)ccn2)C[C@@H]1C` [Compound I-82], the values for the Ki in test [1] and in test [2] were less than 0.06 µM and less than 0.5 µM, respectively.

As for `CC(=O)N1[C@H](C)CN(c2cc(-n3cnc(Nc4ccc(N5CCOCC5)cc4)n3)ccn2)C[C@@H]1C` [Compound I-85, 1-(2,6-Dimethyl-4-{4-[3-(4-morpholin-4-yl-phenylamino)-[1,2,4]triazol-1-yl]-pyridin-2-yl}-piperazin-1-yl)-ethanone], the figures for the Ki in test [1] and in test [2] were 0.03 to 0.2 µM and 0.5 to 1 µM, respectively.

In the case of `CCCOC(=O)Nc1ccc(Nc2ncn(-c3ccnc(N4C[C@@H](C)N(C(C)=O)[C@@H](C)C4)c3)n2)cc1` [Compound I-88], the Ki in test [1] is 0.03 to 0.2 µM; in test [2] it was less than 0.5 µM.

As to `CC(=O)N1[C@H](C)CN(c2cc(-n3cnc(Nc4ccc(NC(=O)OC(C)C)cc4)n3)ccn2)C[C@@H]1C` [Compound I-89], the Ki in test [1] is 0.03 to 0.2 µM; in test [2] it was 0.5 to 1 µM.

On to `CC(=O)N1[C@H](C)CN(c2cc(-n3cnc(Nc4ccc(NC(=O)OCC(C)C)cc4)n3)ccn2)C[C@@H]1C` [Compound I-90], for which the figures for the Ki in test [1] and in test [2] were 0.03 to 0.2 µM and 0.5 to 1 µM, respectively.

As for `CC(=O)N1[C@H](C)CN(c2cc(-n3cnc(Nc4ccc(NC(=O)OCC(C)(C)C)cc4)n3)ccn2)C[C@@H]1C` [Compound I-91], the Ki in test [1] was in the range of 0.03 to 0.2 µM; in test [2] it was 0.5 to 1 µM.

On to `CC(=O)N1[C@H](C)CN(c2cc(-n3cnc(Nc4ccc(N5CCN(S(=O)(=O)c6ccc(C)cc6)CC5)cc4)n3)ccn2)C[C@@H]1C` [Compound I-92], for which the values for the Ki in test [1] and in test [2] were 0.03 to 0.2 µM and 0.5 to 1 µM, respectively.

Consider `O=C(CC1CCCC1)Nc1cc(-n2cnc(Nc3ccccc3)n2)ccn1` [Compound I-94, 2-Cyclopentyl-N-[4-(3-phenylamino-[1,2,4]triazol-1-yl)-pyridin-2-yl]-acetamide], for which the Ki in test [1] was 0.001 to 0.03 µM; in test [2] it was less than 0.5 µM.

Regarding `O=C(CCc1ccccc1)Nc1cc(-n2cnc(Nc3ccccc3)n2)ccn1` [Compound I-95], the Ki in test [1] was 0.001 to 0.03 µM; in test [2] it was less than 0.5 µM.

Take `O=C(Cc1ccccc1)Nc1cc(-n2cnc(Nc3ccccc3)n2)ccn1` [Compound I-96]: the Ki in test [1] was 0.001 to 0.03 µM; in test [2], less than 0.5 µM.

Consider `CC(=O)N1[C@H](C)CN(c2cc(-n3cnc(Nc4ccc(N5CCN(C(=O)OC(C)(C)C)CC5)cc4)n3)ccn2)C[C@@H]1C` [Compound I-97, 4-(4-{1-[2-(4-Acetyl-3,5-dimethyl-piperazin-1-yl)-pyridin-4-yl]-1H-[1,2,4]triazol-3-ylamino}-phenyl)-piperazine-1-carboxylic acid tert-butyl ester], for which the Ki is 0.001 to 0.03 µM in test [1] and less than 0.5 µM in test [2].

On to `CCNC(=O)Nc1ccc(Nc2ncn(-c3ccnc(N4C[C@@H](C)N(C(C)=O)[C@@H](C)C4)c3)n2)cc1` [Compound I-98, 1-(4-{1-[2-(4-Acetyl-3,5-dimethyl-piperazin-1-yl)-pyridin-4-yl]-1H-[1,2,4]triazol-3-ylamino}-phenyl)-3-ethyl-urea], for which the figures for the Ki in test [1] and in test [2] were 0.001 to 0.03 µM and less than 0.5 µM, respectively.

As to `CCCNC(=O)Nc1ccc(Nc2ncn(-c3ccnc(N4C[C@@H](C)N(C(C)=O)[C@@H](C)C4)c3)n2)cc1` [Compound I-99], the Ki in test [1] is 0.001 to 0.03 µM; in test [2], less than 0.5 µM.

As to `CC(=O)N1[C@H](C)CN(c2cc(-n3cnc(Nc4ccc(NC(=O)NC(C)C)cc4)n3)ccn2)C[C@@H]1C` [Compound I-100], the Ki in test [1] was 0.001 to 0.03 µM; in test [2], less than 0.5 µM.

Turning to `CC(=O)N1[C@H](C)CN(c2cc(-n3cnc(Nc4ccc(NC(=O)NC(C)(C)C)cc4)n3)ccn2)C[C@@H]1C` [Compound I-101], the Ki in test [1] was in the range of 0.03 to 0.2 µM; in test [2] it was 0.5 to 1 µM.

As to `CC(C)(C)CC(=O)Nc1cc(-n2cnc(Nc3ccccc3)n2)ccn1` [Compound I-102], the Ki in test [1] was 0.001 to 0.03 µM; in test [2] it was less than 0.5 µM.

For the molecule `c1ccc(-n2cnc(Nc3ccnc(N4CCOCC4)c3)n2)cc1` [Compound I-105], the Ki in test [1] was 0.001 to 0.03 µM; in test [2], less than 0.5 µM.

`c1ccc(-n2cnc(Nc3ccc(N4CCOCC4)cc3)n2)cc1` [Compound I-106]: the values for the Ki in test [1] and in test [2] were 0.03 to 0.2 µM and more than 1 µM, respectively.

With `c1ccc(-n2cnc(Nc3ccnc(NCCN4CCOCC4)c3)n2)cc1` [Compound I-107], the Ki is 0.03 to 0.2 µM in test [1] and more than 1 µM in test [2].

On to `c1ccc(-n2cnc(Nc3ccc(N4CCOCC4)nc3)n2)cc1` [Compound I-134], for which the Ki in test [1] was 0.03 to 0.2 µM and > 0.2 µM; in test [2], more than 1 µM.

Consider `CN1CCN(c2ccc(Nc3ncn(-c4ccccc4)n3)cn2)CC1` [Compound I-135], for which the Ki in test [1] is 0.03 to 0.2 µM; in test [2] it was more than 1 µM.

These data come from patent US7598245B2 (Vertex Pharmaceuticals Incorporated, priority 2003, dated 2009).
